Columns and labels:
Format in all cases: toxicity, cell-based
[1] = tested on: U2OS; test: Incucyte cell viability with U2OS; conditions: human, 10 µM, compound concentration 10 uM
[2] = tested on: HEK-293T; test: Incucyte cell viability with HEK293T; conditions: human, 10 µM, compound concentration 10 uM
[3] = tested on: Fibroblast; test: Incucyte cell viability with human fibroblast; conditions: 10 µM, compound concentration 10 uM
[4] = 6 h, replicate number 1, timepoint 6 hours
[5] = 6 h, replicate number 2, timepoint 6 hours
[6] = 12 h, replicate number 1, timepoint 12 hours
[7] = 12 h, replicate number 2, timepoint 12 hours
[8] = 18 h, replicate number 1, timepoint 18 hours
[9] = 18 h, replicate number 2, timepoint 18 hours
[10] = 24 h, replicate number 1, timepoint 24 hours
[11] = 24 h, replicate number 2, timepoint 24 hours
[12] = 0 h, replicate number 2, timepoint 0 hours
[13] = 0 h, replicate number 1, timepoint 0 hours
Note: unitless GR value; below 1 slowed growth and below 0 cell loss.

Row | SMILES | Growth Rate [1, 4] | Growth Rate [1, 5] | Growth Rate [1, 6] | Growth Rate [1, 7] | Growth Rate [1, 8] | Growth Rate [1, 9] | Growth Rate [1, 10] | Growth Rate [1, 11] | Growth Rate [2, 4] | Growth Rate [2, 5] | Growth Rate [2, 6] | Growth Rate [2, 7] | Growth Rate [2, 8] | Growth Rate [2, 9] | Growth Rate [2, 10] | Growth Rate [3, 4] | Growth Rate [3, 5] | Growth Rate [3, 6] | Growth Rate [3, 8] | Growth Rate [3, 10] | also measured
1 | CC(C)COc1ccc(CNC(=O)N(Cc2ccc(F)cc2)C2CCN(C)CC2)cc1 [PIMAVANSERIN] | 0.56 | 0.04 | 0.62 | 0.31 | 0.57 | 0.26 | 0.5 | 0.24 | -0.67 | 0.4 | -0.29 | 0.31 | -0.21 | 0.1 | -0.29 | 0.97 | -0.26 | 0.37 | 0.14 | 0.27 | Growth Rate [2, 11]: -0.01; Growth Rate [3, 7]: -0.05; Growth Rate [3, 11]: 0.26
2 | Br.Cc1cccc(C2CN(C)CCc3c2cc(O)c(O)c3Cl)c1 (stereo not given) |  | 0.97 | 0.92 |  | 0.87 | 0.92 | 0.84 | 0.97 | 0.81 | 0.45 | 0.71 | 0.8 | 0.95 | 0.81 | 0.93 |  |  |  |  |  | Growth Rate [2, 12]: 0.8; Growth Rate [3, 13]: -0.09; Growth Rate [3, 12]: 0.18
3 | O=C1[C@H](Cc2ccc(O)cc2)N2C(=O)CCN(C(=O)NCc3ccccc3)[C@H]2CN1Cc1cccc2ccccc12 | 0.4 | 0.87 | 0.14 | 0.6 | 0.11 | 0.51 | 0.3 | 0.57 | -0.42 | -0.2 | -0.35 | -0.29 | -0.29 | -0.22 | -0.24 | -0.77 | 0.03 | -0.6 | -0.71 | -0.54 | Growth Rate [1, 13]: -0.65; Growth Rate [1, 12]: 0.18; Growth Rate [2, 13]: 0.98; Growth Rate [2, 12]: 0.37; Growth Rate [2, 11]: -0.21; Growth Rate [3, 13]: 0.78; Growth Rate [3, 12]: 0.82; Growth Rate [3, 7]: -0.16; Growth Rate [3, 9]: -0.07; Growth Rate [3, 11]: -0.02
4 | Nc1nc(-c2ccco2)c2cnn(Cc3ccccc3F)c2n1 | 0.66 | 0.28 |  | 0.27 | 0.95 | 0.48 | 0.89 | 0.48 | -0.23 | -0.21 | -0.22 | -0.25 | -0.17 | -0.05 | -0.12 | -0.86 | -0.89 | -0.81 | -0.75 | -0.66 | Growth Rate [1, 13]: -0.81; Growth Rate [2, 11]: 0.12; Growth Rate [3, 7]: -0.55; Growth Rate [3, 9]: -0.29; Growth Rate [3, 11]: -0.09
5 | CN[C@@H](C)C(=O)N[C@H](C(=O)N1CCC[C@H]1C(=O)Nc1snnc1-c1ccccc1)C1CCCCC1 [GDC-0152] | 0.5 |  | 0.49 |  | 0.87 |  |  |  | 0.43 |  | 0.37 | 0.71 | 0.36 | 0.66 | 0.4 | -0.81 | -0.33 | -0.63 | -0.58 | -0.44 | Growth Rate [1, 13]: -0.64; Growth Rate [1, 12]: 0.74; Growth Rate [2, 13]: 0.68; Growth Rate [2, 12]: 0.53; Growth Rate [2, 11]: 0.52; Growth Rate [3, 13]: 0.95; Growth Rate [3, 12]: 0.59; Growth Rate [3, 7]: -0.17; Growth Rate [3, 9]: -0.22; Growth Rate [3, 11]: -0.21
6 | CCCCCCCCc1ccc(CCC(N)(CO)CO)cc1 [FINGOLIMOD] | -0.97 | -0.45 | -0.74 | -0.31 | -0.23 |  | 0.13 | -0.13 | -0.74 | -0.91 | -0.52 | -0.63 | -0.41 | -0.5 | -0.33 | -0.91 | -0.95 | -0.88 | -0.82 | -0.7 | Growth Rate [2, 11]: -0.4; Growth Rate [3, 7]: -0.71; Growth Rate [3, 9]: -0.59; Growth Rate [3, 11]: -0.42
7 | CNC(=O)c1nn(C)c2c1C(C)(C)Cc1cnc(Nc3ccc(N4CCN(C)CC4)cc3)nc1-2 [MILCICLIB] | 0.35 | 0.23 | 0.17 | 0.29 | 0.23 | 0.38 | 0.21 | 0.25 | -0.57 | -0.72 | -0.22 | -0.34 | -0.12 | -0.15 | -0.02 | -0.13 | -0.21 | -0.1 | 0.24 | 0.34 | Growth Rate [1, 13]: -0.33; Growth Rate [2, 11]: -0.01; Growth Rate [3, 12]: 1; Growth Rate [3, 7]: -0.07; Growth Rate [3, 9]: 0.23; Growth Rate [3, 11]: 0.33
8 | CN(C)C(=O)N1CC[C@H](NC2=Nc3cc(F)ccc3N(CC(F)F)c3ccc(Cl)cc32)C1 |  |  |  | 0.92 |  | 0.92 |  |  | 0.94 | 0.35 | 0.82 | 0.77 | 0.89 | 0.79 | 0.83 | -0.43 |  | 0.6 | 0.62 | 0.32 | Growth Rate [2, 12]: 0.7; Growth Rate [2, 11]: 0.88; Growth Rate [3, 12]: -0.03; Growth Rate [3, 9]: 0.82; Growth Rate [3, 11]: 0.81
9 | CS(=O)(=O)N1CCCC(NC(=O)[C@H](CCC2CCCCC2)NC(=O)c2ccc(CNc3ncnc4c3nnn4-c3ccccc3)cc2)C1 (stereo not given in full) [SR-301] | 0.78 |  | 0.94 |  | 0.6 | 0.89 | 0.6 |  | -0.5 |  | -0.33 |  | -0.23 |  | -0.11 | -0.33 |  | -0.47 | -0.48 | -0.39 | Growth Rate [1, 13]: 0.63; Growth Rate [2, 12]: 0.12; Growth Rate [3, 12]: -0.06
10 | COc1ncc2cc(C(=O)Nc3cc(C(=O)NCc4cccc(Cl)c4)ccc3Cl)c(=O)[nH]c2n1 | 0.36 | 0.28 |  | 0.69 | 0.51 | 0.67 | 0.75 | 0.69 | 0.48 | 0.93 | 0.55 | 0.83 | 0.64 | 0.9 | 0.66 | -0.08 | -0.3 | 0.48 | 0.51 | 0.76 | Growth Rate [2, 11]: 0.93; Growth Rate [3, 13]: 0.34; Growth Rate [3, 12]: 0.82; Growth Rate [3, 7]: 0.41
11 | O=C(O)c1ccccc1S(=O)(=O)NCCCCN1C(=O)c2cccc3cccc(c23)C1=O | 0.57 | 0.12 | 0.82 | 0.64 | 0.78 | 0.75 | 0.67 | 0.75 |  |  | 0.9 | 0.98 | 0.82 | 0.89 | 0.91 |  | 0.71 |  | 0.79 |  | Growth Rate [1, 13]: 0.34; Growth Rate [1, 12]: -0.33; Growth Rate [2, 13]: 0.54; Growth Rate [2, 12]: 0.31; Growth Rate [3, 13]: 0.28; Growth Rate [3, 12]: 0.58; Growth Rate [3, 7]: 0.94
12 | Cc1[nH]cnc1CN1CCc2c(c3ccccc3n2C)C1=O [ALOSETRON] | 0.03 |  |  |  | 0.89 | 0.87 |  | 0.9 |  | 0.39 |  |  |  | 0.96 |  |  | 0.22 |  |  |  | Growth Rate [2, 13]: 0.73; Growth Rate [3, 13]: 0.35; Growth Rate [3, 9]: 1

— ChEMBL document CHEMBL5058564, “EUbOPEN Chemogenomics Library 2 (Incucyte)” (2022)
